The values that follow come from a compilation of properties of binary mixtures (doi:10.1016/j.molliq.2020.113163).

One may read the viscosity as the internal friction of a fluid under shear. Read a high viscosity as sluggish flow.

The nature of the data set: xn = mol fraction of the nth substance listed. The note with it: 101 kPa, x1 = 0.8.

The compound `C1CCC2=NCCCN2CC1` + O=S(=O)([N-]S(=O)(=O)C(F)(F)F)C(F)(F)F.[Li+] showed an electrical conductivity (338.15 K) of 0.0047 S/m, an electrical conductivity (358.15 K) of 0.0256 S/m and an electrical conductivity (368.15 K) of 0.0438 S/m. Besides, the viscosity (338.15 K) was 977 mPa·s, the viscosity (358.15 K) worked out at 160.9 mPa·s and the viscosity (368.15 K) was 82.4 mPa·s.

Regarding `C1CN=C2CCCN2C1` + O=S(=O)([N-]S(=O)(=O)C(F)(F)F)C(F)(F)F.[Li+], the electrical conductivity is, setting by setting: (328.15 K) 0.0252 S/m; (348.15 K) 0.0633 S/m; (358.15 K) 0.0966 S/m. In addition, the viscosity reads like this: (328.15 K) 566 mPa·s; (348.15 K) 116.3 mPa·s; (358.15 K) 63.5 mPa·s.
